Laboratory results published in ChEMBL document CHEMBL1156557, “Structure and biosynthesis of norneolambertellin produced by Lambertella sp. 1346” (Bioorg Med Chem Lett, 2008).
The source made the active and inactive calls. No cut-off for these calls is given here.

Key:
[1] = system: Monilinia fructigena; assay: Antifungal activity against Monilinia fructigena; assay type: functional, organism-based
[2] = system: Bipolaris oryzae; assay: Antifungal activity against Cochliobolus miyabeanus at 50 ug/ml; assay type: functional, organism-based

## Cc1cc2c(=O)oc3c(O)cccc3c2oc1=O
[1]
  Activity: inactive
[2]
  Activity: Active
